Tested on: 233499-124-R-J3-PDC complex spheroid growth
Experiment: Anticancer human tumor 233499-124-R-J3-PDC patient-derived colon adenocarcinoma cell line growth inhibition [AhR]
Settings: for IC50: curve of first compound; for viability, T/C: stronger effect = lower value; active means viability on the fitted dose curve at most 10% of control; inactive means the rest
In short: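 Complex tumor spheroids co-cultured with HUVEC and human MSC stroma; AhR antagonists tested in combination with standard-of-care and investigational agents. Top concentration at or near clinical Cmax (else 10 microM), half-log dilutions; growth expressed as percent test/control.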

[1] = second compound 0.1 µM, first compound 0.0316 µM
[2] = second compound 0.1 µM, first compound 0.1 µM
[3] = second compound 0.316 µM, first compound 0.0316 µM
[4] = second compound 0.316 µM, first compound 0.1 µM
[5] = second compound 1 µM, first compound 0.0316 µM
[6] = second compound 1 µM, first compound 0.1 µM
[7] = second compound 3.16 µM, first compound 0.0316 µM
[8] = second compound 3.16 µM, first compound 0.1 µM
[9] = second compound 10 µM, first compound 0.0316 µM
[10] = second compound 10 µM, first compound 0.1 µM
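Further: spheroids exposed to agents for seven days before reading.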

CC[C@@]1(O)C(=O)OCc2c1cc1n(c2=O)Cc2cc3c(CN(C)C)c(O)ccc3nc2-1 + Cc1ccccc1N=Nc1ccc(NC(=O)c2ccnn2C)c(C)c1
> 100 nM: IC50 (second compound 0.1 µM) | IC50 (second compound 0.316 µM) | IC50 (second compound 1 µM) | IC50 (second compound 3.16 µM) | IC50 (second compound 10 µM)
inactive: viability, T/C (second compound 0.1 µM, first compound 0.000316 µM) 88.5% | viability, T/C (second compound 0.1 µM, first compound 0.001 µM) 105% | viability, T/C (second compound 0.1 µM, first compound 0.00316 µM) 113% | viability, T/C (second compound 0.1 µM, first compound 0.01 µM) 109% | viability, T/C [1] 79.4% | viability, T/C [2] 92.1% | viability, T/C (second compound 0.316 µM, first compound 0.000316 µM) 114% | viability, T/C (second compound 0.316 µM, first compound 0.001 µM) 110% | viability, T/C (second compound 0.316 µM, first compound 0.00316 µM) 90.8% | viability, T/C (second compound 0.316 µM, first compound 0.01 µM) 98.8% | viability, T/C [3] 111% | viability, T/C [4] 91.2% | viability, T/C (second compound 1 µM, first compound 0.000316 µM) 97.9% | viability, T/C (second compound 1 µM, first compound 0.001 µM) 105% | viability, T/C (second compound 1 µM, first compound 0.00316 µM) 89.5% | viability, T/C (second compound 1 µM, first compound 0.01 µM) 93.2% | viability, T/C [5] 87.3% | viability, T/C [6] 95% | viability, T/C (second compound 3.16 µM, first compound 0.000316 µM) 111% | viability, T/C (second compound 3.16 µM, first compound 0.001 µM) 105% | viability, T/C (second compound 3.16 µM, first compound 0.00316 µM) 96.1% | viability, T/C (second compound 3.16 µM, first compound 0.01 µM) 98.2% | viability, T/C [7] 95.9% | viability, T/C [8] 87.9% | viability, T/C (second compound 10 µM, first compound 0.000316 µM) 102% | viability, T/C (second compound 10 µM, first compound 0.001 µM) 113% | viability, T/C (second compound 10 µM, first compound 0.00316 µM) 95.5% | viability, T/C (second compound 10 µM, first compound 0.01 µM) 104% | viability, T/C [9] 101% | viability, T/C [10] 106%

CC(C)c1c(-c2ccccc2)nc2c(C#N)c[nH]n2c1=O + Cc1cncc(-c2nc(NCCc3c[nH]c4ccccc34)c3ncn(C(C)C)c3n2)c1
< 31.6 nM: IC50 (second compound 10 µM)
> 10000 nM: IC50 (second compound 0.1 µM) | IC50 (second compound 0.316 µM) | IC50 (second compound 1 µM) | IC50 (second compound 3.16 µM)
inactive: viability, T/C [1] 88.8% | viability, T/C [2] 100% | viability, T/C (second compound 0.1 µM, first compound 0.316 µM) 96.5% | viability, T/C (second compound 0.1 µM, first compound 1 µM) 108% | viability, T/C (second compound 0.1 µM, first compound 3.16 µM) 101% | viability, T/C (second compound 0.1 µM, first compound 10 µM) 108% | viability, T/C [3] 89.9% | viability, T/C [4] 88.9% | viability, T/C (second compound 0.316 µM, first compound 0.316 µM) 87.4% | viability, T/C (second compound 0.316 µM, first compound 1 µM) 86.3% | viability, T/C (second compound 0.316 µM, first compound 3.16 µM) 86.2% | viability, T/C (second compound 0.316 µM, first compound 10 µM) 85.2% | viability, T/C [5] 84.5% | viability, T/C [6] 79.2% | viability, T/C (second compound 1 µM, first compound 0.316 µM) 71.5% | viability, T/C (second compound 1 µM, first compound 1 µM) 73.8% | viability, T/C (second compound 1 µM, first compound 3.16 µM) 79.2% | viability, T/C (second compound 1 µM, first compound 10 µM) 84% | viability, T/C [7] 72.5% | viability, T/C [8] 86.5% | viability, T/C (second compound 3.16 µM, first compound 0.316 µM) 74.6% | viability, T/C (second compound 3.16 µM, first compound 1 µM) 60.9% | viability, T/C (second compound 3.16 µM, first compound 3.16 µM) 73.3% | viability, T/C (second compound 3.16 µM, first compound 10 µM) 77.2%
active: viability, T/C [9] 1.69% | viability, T/C [10] 2.34% | viability, T/C (second compound 10 µM, first compound 0.316 µM) 4.08% | viability, T/C (second compound 10 µM, first compound 1 µM) 2.26% | viability, T/C (second compound 10 µM, first compound 3.16 µM) 2.36% | viability, T/C (second compound 10 µM, first compound 10 µM) 2.85%
